The values below come from ChEMBL document CHEMBL2074198, “Influence of passive permeability on apparent P-glycoprotein kinetics” (Pharm Res, 2000).

Molecules are shown by their SMILES.

Series [1] addresses T1, ATP-dependent translocase ABCB1 (Homo sapiens, UniProt P08183). Briefly: TP_TRANSPORTER: inhibition of Vinblastine transepithelial transport (basal to apical) (Vinblastine: 0.004 uM, […]: 3000 uM) in Caco-2 cells. The format is functional, cell-based. The following applies: caco-2, 3000 µM.
Series [2] has as its target T1, ATP-dependent translocase ABCB1. The experiment in a line: TP_TRANSPORTER: inhibition of Vinblastine transepithelial transport (basal to apical)(Vinblastine: 0.004 uM, Nicardipine: 60 uM) in Caco-2 cells. Conditions: caco-2, 60 µM. The format is functional, cell-based. For orientation: Caco-2 monolayers are a common model of the intestinal barrier.

T1 sequence (P08183 whole entry): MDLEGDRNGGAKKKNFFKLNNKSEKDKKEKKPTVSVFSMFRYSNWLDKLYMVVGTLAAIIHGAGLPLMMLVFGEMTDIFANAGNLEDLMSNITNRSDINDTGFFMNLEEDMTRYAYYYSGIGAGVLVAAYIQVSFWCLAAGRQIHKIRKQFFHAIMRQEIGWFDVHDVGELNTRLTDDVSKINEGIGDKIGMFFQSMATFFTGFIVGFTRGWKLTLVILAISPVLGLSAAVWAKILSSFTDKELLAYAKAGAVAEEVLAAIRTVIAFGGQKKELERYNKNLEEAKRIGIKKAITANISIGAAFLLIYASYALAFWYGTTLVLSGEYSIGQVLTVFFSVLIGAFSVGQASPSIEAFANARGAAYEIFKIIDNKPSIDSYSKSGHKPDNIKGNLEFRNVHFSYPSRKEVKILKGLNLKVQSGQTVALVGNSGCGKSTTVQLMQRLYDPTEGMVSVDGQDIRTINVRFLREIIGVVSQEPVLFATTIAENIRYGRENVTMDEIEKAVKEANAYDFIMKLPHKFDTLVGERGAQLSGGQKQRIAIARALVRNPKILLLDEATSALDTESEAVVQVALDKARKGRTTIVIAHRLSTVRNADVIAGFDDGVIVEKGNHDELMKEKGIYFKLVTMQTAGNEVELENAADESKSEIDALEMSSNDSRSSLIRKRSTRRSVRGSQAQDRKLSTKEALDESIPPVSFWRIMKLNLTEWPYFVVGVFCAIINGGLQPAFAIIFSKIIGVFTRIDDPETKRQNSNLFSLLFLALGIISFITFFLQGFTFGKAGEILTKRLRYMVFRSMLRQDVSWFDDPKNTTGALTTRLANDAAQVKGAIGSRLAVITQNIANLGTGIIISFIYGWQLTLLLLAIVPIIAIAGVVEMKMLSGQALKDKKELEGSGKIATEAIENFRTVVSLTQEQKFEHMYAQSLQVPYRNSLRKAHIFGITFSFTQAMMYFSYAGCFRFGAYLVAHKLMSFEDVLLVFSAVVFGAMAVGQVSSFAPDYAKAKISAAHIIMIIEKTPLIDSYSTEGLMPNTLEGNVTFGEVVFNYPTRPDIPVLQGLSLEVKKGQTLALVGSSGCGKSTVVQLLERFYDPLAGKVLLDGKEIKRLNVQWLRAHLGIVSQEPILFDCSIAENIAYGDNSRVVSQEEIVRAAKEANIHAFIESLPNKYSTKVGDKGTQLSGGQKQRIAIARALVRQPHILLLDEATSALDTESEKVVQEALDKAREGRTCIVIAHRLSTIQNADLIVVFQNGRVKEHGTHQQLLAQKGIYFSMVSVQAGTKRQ

With `CNC(=C[N+](=O)[O-])NCCSCc1ccc(CN(C)C)o1` [RANITIDINE], the Activity result in series [1] was “inhibitor [+]”. `COC(=O)C1=C(C)NC(C)=C(C(=O)OCCN(C)Cc2ccccc2)C1c1cccc([N+](=O)[O-])c1` (configuration not stated) [NICARDIPINE]: the Activity entry in series [2] is “inhibitor [+]”.
